Test results from patent US20250340551A1, “SMALL MOLECULE MODULATORS OF STAT6” (Gilead Sciences, Inc., priority 2024, published 2025).

Target: human STAT6 (Homo sapiens (Human), UniProt P42226)
Assay: Surface plasmon resonance assay (Biacore 8K, binding to immobilized STAT6)
Conditions: human STAT6 aa122-658, N-terminal His-tag, CM5 chip, 25° C.; geometric mean; read-out: STAT6 SPR Kd
In short: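 Run at 25° C with His-tagged STAT6 aa122-658 (insect-cell expressed) amine-coupled to a CM5 chip, reference-subtracted, in PBS-P+ with 2% DMSO. Multi-cycle kinetics: 60 sec. contact, up to 300 sec. dissociation. Affinity fitted from late report-point binding isotherms, with Rmax both free and fixed to theoretical 1:1.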

human STAT6, sequence (P42226 122-658): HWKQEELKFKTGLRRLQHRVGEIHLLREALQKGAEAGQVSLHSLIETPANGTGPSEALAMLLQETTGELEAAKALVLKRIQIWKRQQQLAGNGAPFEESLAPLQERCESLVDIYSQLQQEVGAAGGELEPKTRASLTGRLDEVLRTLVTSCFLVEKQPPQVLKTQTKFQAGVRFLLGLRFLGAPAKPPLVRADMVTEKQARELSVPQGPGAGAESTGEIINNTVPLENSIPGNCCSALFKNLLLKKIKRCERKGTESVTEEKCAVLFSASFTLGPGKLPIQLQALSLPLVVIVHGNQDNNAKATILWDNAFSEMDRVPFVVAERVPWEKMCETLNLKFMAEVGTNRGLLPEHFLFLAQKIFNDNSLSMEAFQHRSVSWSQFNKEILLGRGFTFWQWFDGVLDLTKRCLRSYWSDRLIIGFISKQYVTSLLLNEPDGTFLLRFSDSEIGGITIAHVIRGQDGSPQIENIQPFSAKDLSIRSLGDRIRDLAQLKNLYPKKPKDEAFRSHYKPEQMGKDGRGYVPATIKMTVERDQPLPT

Row | Compound | Kd
1 | [2H]C([2H])([2H])N(C(=O)c1ccc(C2CCN(Cc3cc4c(-c5ccc(N)nc5OC)ccnc4n3C)CC2)cc1)C([2H])([2H])[2H] [Example 1k23, 4-[1-[[4-(6-Amino-2-methoxy-3-pyridyl)-1-methyl-pyrrolo[2,3-b]pyridin-2-yl]methyl]-4-piperidyl]-N,N-bis(trideuteriomethyl)benzamide] | 25.5 nM
2 | CCOC(=O)c1nc(-c2ccnc3c2cc(CN2CCC(c4ccc(C(=O)N(C)C)cc4)CC2)n3C)ccc1N [Example 1k78, Ethyl 3-amino-6-(2-((4-(4-(dimethylcarbamoyl)phenyl)piperidin-1-yl)methyl)-1-methyl-1H-pyrrolo[2,3-b]pyridin-4-yl)picolinate] | 59.3 nM
3 | [2H]C([2H])([2H])N(C(=O)c1ccc(C2=CCN([C@@H](C)c3cc4c(-c5ccc(N)cn5)ccnc4n3C)CC2)cc1)C([2H])([2H])[2H] [Example 1af43, (S)-4-(1-(1-(4-(5-Aminopyridin-2-yl)-1-methyl-1H-pyrrolo[2,3-b]pyridin-2-yl)ethyl)-1,2,3,6-tetrahydropyridin-4-yl)-N,N-bis(methyl-d3)benzamide] | 2950 nM
4 | CC(=O)Nc1ccc(-c2ccnc3c2cc(CN2CC[C@@H](c4ccc(C(=O)N(C)C)cc4)[C@H](C)C2=O)n3C)cc1 (single isomer, unassigned) [Example 1aa2] | 203 nM
5 | CN(C)C(=O)c1ccc(C2CCN(Cc3cc4c(-c5cnc(N)nc5C#N)ccnc4n3C)CC2)cc1 [Example 1k41, 4-[1-[[4-(2-Amino-4-cyano-pyrimidin-5-yl)-1-methyl-pyrrolo[2,3-b]pyridin-2-yl]methyl]-4-piperidyl]-N,N-dimethyl-benzamide] | 188 nM
6 | CN(C)C(=O)c1ccc(C2CCN(Cc3cc4c(-c5cnc(N)cc5C(F)F)ccnc4n3C)CC2)cc1 [Example 1k52, 4-[1-[[4-[6-Amino-4-(difluoromethyl)-3-pyridyl]-1-methyl-pyrrolo[2,3-b]pyridin-2-yl]methyl]-4-piperidyl]-N,N-dimethyl-benzamide] | 53.5 nM
7 | CN(C)C(=O)c1ccc(C2CCN(Cc3cc4c(-c5ccc(N)c(Cl)n5)ccnc4n3C)CC2)cc1 [Example 1k77, 4-(1-((4-(5-Amino-6-chloropyridin-2-yl)-1-methyl-1H-pyrrolo[2,3-b]pyridin-2-yl)methyl)piperidin-4-yl)-N,N-dimethylbenzamide] | 52.3 nM
8 | [2H]C([2H])([2H])N(C(=O)c1ccc(C2=CCN([C@H](C)c3cc4c(-c5ccc(N)cn5)ccnc4n3C)CC2)c(C)c1)C([2H])([2H])[2H] [Example 1af33, (R)-4-(1-(1-(4-(5-aminopyridin-2-yl)-1-methyl-1H-pyrrolo[2,3-b]pyridin-2-yl)ethyl)-1,2,3,6-tetrahydropyridin-4-yl)-3-methyl-N,N-bis(methyl-d3)benzamide] | 15.4 nM
9 | [2H]C([2H])([2H])N(C(=O)c1ccc(C2CCN([C@@H](C)c3cc4c(-c5ccc(N)nc5C#N)ccnc4n3C)CC2)cc1)C([2H])([2H])[2H] [Example 1af29, (S)-4-(1-(1-(4-(6-Amino-2-cyanopyridin-3-yl)-1-methyl-1H-pyrrolo[2,3-b]pyridin-2-yl)ethyl)-piperidin-4-yl)-N,N-bis(methyl-d3)benzamide] | 645 nM
10 | C[C@H]1C[C@H](c2ccc(C(=O)N(C)C)cc2)CCN1Cc1cc2c(-c3ccc(N)nc3C#N)ccnc2n1C (single isomer, unassigned) [Example 1q2] | 2560 nM
11 | [2H]C([2H])([2H])N(C(=O)c1ccc(C2=CCN([C@@H](C)c3cc4c(-c5ccc(N)nc5C#N)ccnc4n3C)CC2)c(C)c1)C([2H])([2H])[2H] [Example 1af25, (S)-4-(1-(1-(4-(6-amino-2-cyanopyridin-3-yl)-1-methyl-1H-pyrrolo[2,3-b]pyridin-2-yl)ethyl)-1,2,3,6-tetrahydropyridin-4-yl)-3-methyl-N,N-bis(methyl-d3)benzamide] | 361 nM
12 | [2H]C([2H])([2H])N(C(=O)c1ccc(C2CCN([C@@H](C)c3cc4c(-c5ccc(N)cn5)ccnc4n3C)CC2)cc1)C([2H])([2H])[2H] [Example 1af35, (S)-4-(1-(1-(4-(5-Aminopyridin-2-yl)-1-methyl-1H-pyrrolo[2,3-b]pyridin-2-yl)-ethyl)piperidin-4-yl)-N,N-bis(methyl-d3)benzamide] | 605 nM
13 | Cc1cc(C(=O)N(C)C)ccc1C1CCN([C@@H](C)c2cc3c(-c4ccc(N)nc4C#N)ccnc3n2C)CC1 [Example 1af27, (S)-4-(1-(1-(4-(6-Amino-2-cyanopyridin-3-yl)-1-methyl-1H-pyrrolo[2,3-b]pyridin-2-yl)ethyl)piperidin-4-yl)-N,N,3-trimethylbenzamide] | 66.5 nM
14 | COc1cc(-c2ccnc3c2cc(CN2CCC(c4ccc(C(=O)N(C)C)cc4)CC2)n3C)c(C)nc1N [Example 1k33, 4-[1-[[4-(6-Amino-5-methoxy-2-methyl-3-pyridyl)-1-methyl-pyrrolo[2,3-b]pyridin-2-yl]methyl]-4-piperidyl]-N,N-dimethyl-benzamide] | 2770 nM

Second part, the compound after the results:

Row | Kd | Compound
15 | 16.3 nM | CN(C)C(=O)c1ccc(C2CCN(Cc3cc4c(-c5ccc(NCC(=O)O)nc5)ccnc4n3C)CC2)cc1 [Example 1k63, 2-[[5-[2-[[4-[4-(Dimethylcarbamoyl)phenyl]-1-piperidyl]methyl]-1-methyl-pyrrolo[2,3-b]pyridin-4-yl]-2-pyridyl]amino]acetic acid]
16 | 2730 nM | CNc1ccc(-c2ccnc3c2cc(CN2CCC(c4ccc(C(=O)N(C)C)cc4)CC2)n3C(C)C)cn1 [Example 1ad3, 4-[1-[[1-iso-Propyl-4-[6-(methylamino)-3-pyridyl]pyrrolo[2,3-b]pyridin-2-yl]methyl]-4-piperidyl]-N,N-dimethyl-benzamide]
17 | 67.8 nM | CN(C)C(=O)c1ccc(N2CCN(Cc3cc4c(-c5ccc(N)nc5)ccnc4n3C)C(=O)C2)cc1 [Example 1ae7, 4-[4-[[4-(6-Amino-3-pyridyl)-1-methyl-pyrrolo[2,3-b]pyridin-2-yl]methyl]-3-oxo-piperazin-1-yl]-N,N-dimethyl-benzamide]
18 | 36.7 nM | CNc1ccc(-c2ccnc3c2cc(CN2CC[C@H](c4ccc(C(=O)N(C)C)cc4)[C@@H](F)C2)n3C)cn1 (single isomer, unassigned) [Example 1s24]
19 | 22.3 nM | CNc1ccc(-c2ccnc3c2cc(C(C)N2CCC(c4ccc(C(=O)N(C)C)cc4)CC2)n3C)cn1 (centres unmarked) [Example 1z13, N,N-dimethyl-4-(1-(1-(1-methyl-4-(6-(methylamino)pyridin-3-yl)-1H-pyrrolo[2,3-b]pyridin-2-yl)ethyl)piperidin-4-yl)benzamide]
20 | 27.7 nM | [2H]C([2H])([2H])N(C(=O)c1ccc(C2CCN(Cc3cc4c(-c5ccc(NC)nc5)ccnc4n3C)CC2)cc1)C([2H])([2H])[2H] [Example 1k38, 4-[1-[[1-Methyl-4-[6-(methylamino)-3-pyridyl]pyrrolo[2,3-b]pyridin-2-yl]methyl]-4-piperidyl]-N,N-bis(trideuteriomethyl)benzamide]
21 | 428 nM | CC(=O)Nc1cc(C)c(-c2ccnc3c2cc(CN2CCC(c4ccc(C(=O)N(C)C)cc4)CC2)n3C)cn1 [Example 1k28, 4-[1-[[4-(6-Acetamido-4-methyl-3-pyridyl)-1-methyl-pyrrolo[2,3-b]pyridin-2-yl]methyl]-4-piperidyl]-N,N-dimethyl-benzamide]
22 | 68.6 nM | C[C@H]1CN(c2ccc(C(=O)N(C)C)cc2)CCN1Cc1cc2c(-c3ccc(N)nc3)ccnc2n1C [Example 1n5, 4-[(3S)-4-[[4-(6-Amino-3-pyridyl)-1-methyl-pyrrolo[2,3-b]pyridin-2-yl]methyl]-3-methyl-piperazin-1-yl]-N,N-dimethyl-benzamide]
23 | 139 nM | CNc1ccc(-c2ccnc3c2cc(CN2CC[C@H](c4ccc(C(=O)N(C)C)cc4)[C@@H](F)C2)n3C)nc1 (stereo in doubt) [Example 1o18, 4-((3R,4R)-3-fluoro-1-((1-methyl-4-(5-(methylamino)pyridin-2-yl)-1H-pyrrolo[2,3-b]pyridin-2-yl)methyl)piperidin-4-yl)-N,N-dimethylbenzamide]
24 | 3980 nM | C[C@H]1C[C@H](c2ccc(C(=O)N(C)C)cc2)CCN1Cc1cc2c(-c3ccc(N)cn3)ccnc2n1C (stereo in doubt) [Example 1q8, N,N-dimethyl-4-[(2S,4R)-1-[[4-(5-amino-2-pyridyl)-1-methyl-pyrrolo[2,3-b]pyridin-2-yl]methyl]-2-methyl-4-piperidyl]benzamide]
25 | 133 nM | CNc1ccc(-c2ccnc3c2cc(CN2CC=C(c4ccc(C(=O)N(C)C)cn4)CC2)n3C)cn1 [Example 1s11, N,N-Dimethyl-6-[1-[[1-methyl-4-[6-(methylamino)-3-pyridyl]pyrrolo[2,3-b]pyridin-2-yl]methyl]-3,6-dihydro-2H-pyridin-4-yl]pyridine-3-carboxamide]
26 | 54.1 nM | CCS(=O)(=O)n1c(CN2CCC(c3ccc(C(=O)N(C)C)cc3)CC2)cc2c(-c3ccc(NC)nc3)ccnc21 [Example 1x2, 4-[1-[[1-Ethylsulfonyl-4-[6-(methylamino)-3-pyridyl]pyrrolo[2,3-b]pyridin-2-yl]methyl]-4-piperidyl]-N,N-dimethyl-benzamide]
27 | 38.9 nM | CN(C)C(=O)c1ccc(C2CCN(Cc3cc4c(-c5cnc(N)cc5F)ccnc4n3C)CC2)cc1 [Example 1k15, 4-[1-[[4-(6-Amino-4-fluoro-3-pyridyl)-1-methyl-pyrrolo[2,3-b]pyridin-2-yl]methyl]-4-piperidyl]-N,N-dimethyl-benzamide]
28 | 24.5 nM | CN(C)C(=O)c1ccc([C@@H]2CCN(Cc3cc4c(-c5ccc(N)nc5)ccnc4n3C)C(=O)C2)cc1 [Example 1ae4, (R)—N,N-Dimethyl-4-[1-[[4-(6-amino-3-pyridyl)-1-methyl-pyrrolo[2,3-b]pyridin-2-yl]methyl]-2-oxo-4-piperidyl]benzamide]
29 | 70.6 nM | CNc1ccc(-c2ccnc3c2cc(CN2CCN(c4ccc(C(=O)N(C)C)cc4)CC2=O)n3C)cn1 [Example 1s5, N,N-Dimethyl-4-[4-[[1-methyl-4-[6-(methylamino)-3-pyridyl]pyrrolo[2,3-b]pyridin-2-yl]methyl]-3-oxo-piperazin-1-yl]benzamide]
